Results as given in patent US8309558B2, “Compounds for the treatment of hepatitis C” (Bristol-Myers Squibb Company, priority 2008, dated 2012).

Assays:
[1] = test system: HCV replicon cells; experiment: HCV replicon FRET / luciferase assay (96-well plates); assay type: cell-based; conditions: Hepatitis C virus, Table 1a; HCV replicon; read-out: EC50
Procedure, shortened: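 Replicon cells + titrated cpds, 37 °C CO2. Alamar blue for cytotoxicity, PBS rinse, then lysis reagent w/ 20 μM FRET peptide (EDANS/DABCYL), 150 mM NaCl; kinetic read ex340/em490, 20 cycles. Alt: Dual-Glo luciferase. EC50 = 50% drop in FRET/luciferase signal after background subtraction.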

[2] = target: T1, HCV NS5B RdRp genotype 1b (Hepatitis C virus genotype 1b, UniProt Q9WMX2); experiment: Standard HCV NS5B RdRp enzyme assay; assay type: biochemical; conditions: Table 1a; HCV NS5B RdRp genotype 1b; read-out: IC50
T1 construct: The protein was expressed with an 18 amino acid C-terminal truncation to enhance the solubility; made in house; host or cells: E. coli BL21(DE3), pET21a vector
T1 sequence (Q9WMX2 2420-2992): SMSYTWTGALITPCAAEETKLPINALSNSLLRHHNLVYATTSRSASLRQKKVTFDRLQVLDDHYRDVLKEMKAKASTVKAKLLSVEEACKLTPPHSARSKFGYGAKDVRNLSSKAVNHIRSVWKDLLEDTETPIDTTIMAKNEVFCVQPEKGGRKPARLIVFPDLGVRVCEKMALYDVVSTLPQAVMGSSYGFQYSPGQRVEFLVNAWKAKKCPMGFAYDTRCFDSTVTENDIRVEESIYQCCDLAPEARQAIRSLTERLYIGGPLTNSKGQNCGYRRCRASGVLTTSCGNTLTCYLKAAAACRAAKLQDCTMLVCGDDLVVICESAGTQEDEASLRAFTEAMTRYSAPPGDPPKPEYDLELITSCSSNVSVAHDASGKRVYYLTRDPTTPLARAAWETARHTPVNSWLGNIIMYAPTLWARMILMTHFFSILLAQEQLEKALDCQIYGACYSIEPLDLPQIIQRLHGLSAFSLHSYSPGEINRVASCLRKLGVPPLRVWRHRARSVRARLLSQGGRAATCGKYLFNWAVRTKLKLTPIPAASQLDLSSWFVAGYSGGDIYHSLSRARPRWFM
Experimental: HCV NS5B RdRp cloning, expression, and purification. The cDNA encoding the NS5B protein of HCV, genotype 1b, was cloned into the pET21a expression vector. The protein was expressed with an 18 amino acid C-terminal truncation to enhance the solubility. The E. coli competent cell line BL21(DE3) was used for expression of the protein. Cultures were grown at 37° C. for ˜4 hours until the cultures reached an optical density of 2.0 at 600 nm. The cultures were cooled to 20° C. and induced with 1 mM IPTG. Fresh ampicillin was added to a final concentration of 50 μg/ml and the cells were grown overnight at 20° C.
Cell pellets (3 L) were lysed for purification to yield 15-24 mgs of purified NS5B. The lysis buffer consisted of 20 mM Tris-HCl, pH 7.4, 500 mM NaCl, 0.5% triton X-100, 1 mM DTT, 1 mM EDTA, 20% glycerol, 0.5 mg/ml lysozyme, 10 mM MgCl2, 15 ug/ml deoxyribonuclease I, and Complete TM protease inhibitor tablets (Roche). After addition of the lysis buffer, frozen cell pellets were resuspended using a tissue homogenizer. To reduce the viscosity of the sample, aliquots of the lysate were sonicated on ice using a microtip attached to a Branson sonicator. The sonicated lysate was centrifuged at 100,000×g for 1 hr at 4° C. and filtered through a 0.2 μm filter unit (Corning).
The protein was purified using three sequential chromatography steps: Heparin sepharose CL-6B, polyU sepharose 4B, and Hitrap SP sepharose (Pharmacia). The chromatography buffers were identical to the lysis buffer but contained no lysozyme, deoxyribonuclease I, MgC12 or protease inhibitor and the NaCl concentration of the buffer was adjusted according to the requirements for charging the protein onto the column. Each column was eluted with a NaCl gradient which varied in length from 5-50 column volumes depending on the column type. After the final chromatography step, the resulting purity of the enzyme is >90% based on SDS-PAGE analysis. The enzyme was aliquoted and stored at −80° C.
Standard HCV NS5B RdRp enzyme assay. HCV RdRp genotype 1b assays were run in a final volume of 60 μl in 96 well plates (Costar 3912). The assay buffer composed of 20 mM Hepes, pH 7.5, 2.5 mM KCl, 2.5 mM MgCl2, 1 mM DTT, 1.6 U RNAse inhibitor (Promega N2515), 0.1 mg/ml BSA (Promega R3961), and 2% glycerol. All compounds were serially diluted (3-fold) in DMSO and diluted further in water such that the final concentration of DMSO in the assay was 2%. HCV RdRp genotype 1b enzyme was used at a final concentration of 28 nM. A polyA template was used at 6 nM, and a biotinylated oligo-dT12 primer was used at 180 nM final concentration. Template was obtained commercially (Amersham 27-4110). Biotinylated primer was prepared by Sigma Genosys. 3H-UTP was used at 0.6 μCi (0.29 μM total UTP). Reactions were initiated by the addition of enzyme, incubated at 30° C. for 60 min, and stopped by adding 25 μl of 50 mM EDTA containing SPA beads (4 μg/μl, Amersham RPNQ 0007). Plates were read on a Packard Top Count NXT after >1 hr incubation at room temperature.
IC50 values for compounds were determined using seven different [I]. IC50 values were calculated from the inhibition using the formula y=A+((B−A)/(1+((C/x)^D))).

Structure (SMILES)	EC50 [1]	IC50 [2]
CNC(=O)c1c(-c2ccc(F)cc2)oc2ccc(-c3cccc(C(=O)NCc4cccc(O)c4)c3)cc12	< 250 nM	250 to 1000 nM
CNC(=O)c1c(-c2ccc(F)cc2)oc2ccc(-c3cccc(C(=O)NCCC(C)(C)C)c3)cc12	< 250 nM	< 250 nM
CNC(=O)c1c(-c2ccc(F)cc2)oc2ccc(-c3cccc(C(=O)NCc4cccc(F)c4)c3)cc12	< 250 nM	< 250 nM
CNC(=O)c1c(-c2ccc(F)cc2)oc2ccc(-c3cccc(C(=O)NCc4ccccc4)c3)cc12	< 250 nM	< 250 nM
CNC(=O)c1c(-c2ccc(F)cc2)oc2ccc(-c3cccc(C(=O)NCc4nccs4)c3)cc12	250 to 1000 nM	250 to 1000 nM
CNC(=O)c1c(-c2ccc(F)cc2)oc2ccc(-c3cccc(C(=O)NC4CC4)c3)cc12	250 to 1000 nM	250 to 1000 nM
CNC(=O)c1c(-c2ccc(F)cc2)oc2ccc(-c3cccc(C(=O)N4CCc5ccccc54)c3)cc12	250 to 1000 nM	1000 to 10000 nM
CNC(=O)c1c(-c2ccc(F)cc2)oc2ccc(-c3cccc(C(=O)NCc4ccncc4)c3)cc12	250 to 1000 nM	< 250 nM
CNC(=O)c1c(-c2ccc(F)cc2)oc2ccc(-c3cccc(C(=O)NCC4CCCO4)c3)cc12 (stereo not drawn)	250 to 1000 nM	< 250 nM
CNC(=O)c1c(-c2ccc(F)cc2)oc2ccc(-c3cccc(C(=O)N4CCCC4)c3)cc12	250 to 1000 nM	250 to 1000 nM
CNC(=O)c1c(-c2ccc(F)cc2)oc2ccc(-c3cccc(C(=O)NCC4CCCCC4)c3)cc12	250 to 1000 nM	< 250 nM
CNC(=O)c1c(-c2ccc(F)cc2)oc2ccc(-c3cccc(C(=O)N4CCC4)c3)cc12	250 to 1000 nM	250 to 1000 nM
CNC(=O)c1c(-c2ccc(F)cc2)oc2ccc(-c3cccc(C(=O)NCc4ccccn4)c3)cc12	250 to 1000 nM	< 250 nM
CNC(=O)c1c(-c2ccc(F)cc2)oc2ccc(-c3cccc(C(=O)NCc4cccnc4)c3)cc12	250 to 1000 nM	< 250 nM
CNC(=O)c1c(-c2ccc(F)cc2)oc2ccc(-c3cccc(C(=O)Nc4nc(C)cs4)c3)cc12	250 to 1000 nM	< 250 nM
CNC(=O)c1c(-c2ccc(F)cc2)oc2ccc(-c3ccc(C(=O)NC(C)(C)C)cc3)cc12	250 to 1000 nM	1000 to 10000 nM
CNC(=O)c1c(-c2ccc(F)cc2)oc2ccc(-c3ccc(C(=O)NCC(C)C)cc3)cc12	250 to 1000 nM	> 10000 nM
CNC(=O)c1c(-c2ccc(F)cc2)oc2ccc(-c3ccc(C(=O)N(C)CCc4ccccn4)cc3)cc12	< 250 nM	< 250 nM
CNC(=O)c1c(-c2ccc(F)cc2)oc2ccc(-c3cccc(C(=O)Nc4ccncn4)c3)cc12	250 to 1000 nM	250 to 1000 nM
CNC(=O)c1c(-c2ccc(F)cc2)oc2ccc(-c3cccc(C(=O)Nc4cccc(C)c4)c3)cc12	250 to 1000 nM	250 to 1000 nM
CCOC(=O)CC(C)NC(=O)c1cccc(-c2ccc3oc(-c4ccc(F)cc4)c(C(=O)NC)c3c2)c1 (stereo not drawn)	250 to 1000 nM	< 250 nM
CNC(=O)c1c(-c2ccc(F)cc2)oc2ccc(-c3cccc(C(=O)NC(CC(C)C)C(N)=O)c3)cc12 (stereo not drawn)	250 to 1000 nM	250 to 1000 nM
CNC(=O)c1c(-c2ccc(F)cc2)oc2ccc(-c3cccc(C(=O)NC(C)(C)CC(C)=O)c3)cc12	250 to 1000 nM	250 to 1000 nM
CCn1nccc1NC(=O)c1cccc(-c2ccc3oc(-c4ccc(F)cc4)c(C(=O)NC)c3c2)c1	250 to 1000 nM	250 to 1000 nM
CNC(=O)c1c(-c2ccc(F)cc2)oc2ccc(-c3cccc(C(=O)N[C@H]4CCC[C@H]4C(N)=O)c3)cc12	250 to 1000 nM	250 to 1000 nM
CNC(=O)c1c(-c2ccc(F)cc2)oc2ccc(-c3cccc(C(=O)NC(CCO)c4ccccc4)c3)cc12 (stereo not drawn)	250 to 1000 nM	< 250 nM

Structure (SMILES)	EC50 [1]	IC50 [2]
CNC(=O)c1c(-c2ccc(F)cc2)oc2ccc(-c3cccc(C(=O)N[C@@H]4CCc5ccc(O)cc54)c3)cc12	250 to 1000 nM	> 1390 nM
CNC(=O)c1c(-c2ccc(F)cc2)oc2ccc(-c3cccc(C(=O)Nc4ccnc(C)c4)c3)cc12	250 to 1000 nM	1000 to 10000 nM
CNC(=O)c1c(-c2ccc(F)cc2)oc2ccc(-c3cccc(C(=O)NC(C)c4cccnc4)c3)cc12 (stereo not drawn)	250 to 1000 nM	< 250 nM
CNC(=O)c1c(-c2ccc(F)cc2)oc2ccc(-c3cccc(C(=O)N4CCC[C@H]4C(=O)N(C)C)c3)cc12	250 to 1000 nM	250 to 1000 nM
CNC(=O)c1c(-c2ccc(F)cc2)oc2ccc(-c3cccc(C(=O)N4CCCC4c4ccccn4)c3)cc12 (stereo not drawn)	250 to 1000 nM	250 to 1000 nM
CNC(=O)c1c(-c2ccc(F)cc2)oc2ccc(-c3cccc(C(=O)NC(C)CCc4ccccc4)c3)cc12 (stereo not drawn)	250 to 1000 nM	250 to 1000 nM
CNC(=O)c1c(-c2ccc(F)cc2)oc2ccc(-c3cccc(C(=O)NC(C)(C)c4cccc5ccccc45)c3)cc12	250 to 1000 nM	250 to 1000 nM
CNC(=O)c1c(-c2ccc(F)cc2)oc2ccc(-c3cccc(C(=O)Nc4nccs4)c3)cc12	250 to 1000 nM	< 250 nM
CNC(=O)c1c(-c2ccc(F)cc2)oc2ccc(-c3ccccn3)cc12	250 to 1000 nM	1000 to 10000 nM
CNC(=O)c1c(-c2ccc(F)cc2)oc2ccc(-c3cccc(C#N)c3)cc12	250 to 1000 nM	> 10000 nM
CNC(=O)c1c(-c2ccc(F)cc2)oc2ccc(-c3cccc4[nH]ccc34)cc12	250 to 1000 nM	> 10000 nM
CNC(=O)c1c(-c2ccc(F)cc2)oc2ccc(-c3cccc(C(=O)N(C)Cc4ccccc4)c3)cc12	250 to 1000 nM	250 to 1000 nM
CNC(=O)c1c(-c2ccc(F)cc2)oc2ccc(-c3cccc(C(=O)N4CCCC4c4ccccc4)c3)cc12 (stereo not drawn)	250 to 1000 nM	250 to 1000 nM
CNC(=O)c1c(-c2ccc(F)cc2)oc2ccc(-c3cccc(C(=O)N4CCC(c5ccc(F)cc5)C4)c3)cc12 (stereo not drawn)	250 to 1000 nM	250 to 1000 nM
CCNC(=O)C(C)(C)NC(=O)c1cccc(-c2ccc3oc(-c4ccc(F)cc4)c(C(=O)NC)c3c2)c1	250 to 1000 nM	250 to 1000 nM
CNC(=O)c1c(-c2ccc(F)cc2)oc2ccc(-c3cccc(C(=O)NC(C)(C)C(=O)NCC#N)c3)cc12	250 to 1000 nM	< 250 nM
C=CCNC(=O)C(C)(C)NC(=O)c1cccc(-c2ccc3oc(-c4ccc(F)cc4)c(C(=O)NC)c3c2)c1	250 to 1000 nM	250 to 1000 nM
CNC(=O)c1c(-c2ccc(F)cc2)oc2ccc(-c3cc(C(=O)NCC(C)C)ccc3OC(C)C)cc12	250 to 1000 nM	250 to 1000 nM
CNC(=O)c1c(-c2ccc(F)cc2)oc2cc(NC(=O)COC)c(-c3cccc(C(=O)NC4(c5ccccc5)CC4)c3)cc12	250 to 1000 nM	250 to 1000 nM
CNC(=O)c1c(-c2ccc(F)cc2)oc2ccc(-c3cc(C(=O)NCC(C)C)ccc3OC3CCC3)cc12	250 to 1000 nM	> 1390 nM
CNC(=O)c1c(-c2ccc(F)cc2)oc2cc([N+](=O)[O-])c(-c3cc(C(=O)NCC(C)C)ccc3OC)cc12	250 to 1000 nM	250 to 1000 nM
CNC(=O)c1c(-c2ccc(F)cc2)oc2ccc(Oc3ccc(/C=C(\NC(=O)c4ccccc4)C(=O)OC)cc3)cc12	1000 to 10000 nM	1000 to 10000 nM
CNC(=O)c1c(-c2ccc(F)cc2)oc2ccc(-c3cnc(OC)nc3)cc12	1000 to 10000 nM	1000 to 10000 nM
CNC(=O)c1c(-c2ccc(F)cc2)oc2ccc(-c3ccc(C(=O)O)cc3)cc12	1000 to 10000 nM	250 to 1000 nM
CNC(=O)c1c(-c2ccc(F)cc2)oc2ccc(-c3cccc(C(=O)NCCN(C)C)c3)cc12	1000 to 10000 nM	1000 to 10000 nM
